US20030134779A1, “Method and composition for treatment and/or prevention of antibiotic-resistant microorganism infections” (priority 2002, published 2003)
Where two headings read alike, the source gives them in different places.

Tests used:
Experiment in all cases: MIC of penicillin G alone or with bovine LF, macrodilution
S. aureus ST79/41 = assay type: cell-based; conditions: Staphylococcus aureus, strain β-lactamase +B, read-out: MICs of penicillin G
Text: (§1) Staphylococcus aureus strains ATCC 25923 and 6538 and Escherichia coli ATCC 25922 were obtained from the American Type Culture Collection. Eight bovine mastitis clinical isolates of S. aureus (SHY97-3906, -3923, -4085 -4242, -4320 and -4343, RFT-1 and RFT-5) and one isolate of E. coli SHY97-3923-2 and one isolate of Kiebsiella pneumoniae SHY99-723-1 were kindly provided by the Laboratoire Provincial de Pathologie Animale of St-Hyacinthe and of Rock-Forest (Quebec, Canada), respectively. Nine β-lactam antibiotics resistant S. aureus strains (PC-1, NCTC 9789, 2076, 22260, ST79/741, 3804, RN9, FAR8, and FAR10) were obtained from Vanderbilt University School of Medicine (Nashville, Tenn., USA). All the culture media were from Difco Laboratories (Detroit, Mich.). Bacteria from frozen stock at −80° C. were streaked onto tryptic soy agar plates suplemented with 5% of defibrinated sheep blood (Quelab, Montreal, QC, Canada) or Brain Heart infusion agar plates. Plates were then incubated for 16 to 24 h at 37° C. For most experiments, the strains were subcultured onto Mueller Hinton agar plates (MHA) or broth (MHB) for an additional 16-20 h. Aqueous solutions of the tested products were added by filtration through a sterile filter assembly (pore size 0.2 μm, Fisher, Ottawa, Ontario).
(§2) The MICs were determined by both macrodilution (1 ml/tube) and microdilution (100 μl/well) in sterile 96 well microtiter plates (International Nunc, Napierville, Ill.) techniques in three separate experiments according to the National Committee for Clinical Laboratory Standards (1992 and 1999) in three separate experiments. Serial 2-fold dilutions in MHB of LF, LFC, antibiotic or combination of LF or LFC with antibiotic were inoculated with an overnight culture at a final inoculum of 10^6 cfu/ml in MHB. Effect of LF combination with antibiotic on MICs were determined by adding 0.5 mg or 1 mg/ml of LF to each antibiotic dilution. The MIC was defined as the lowest concentration of drug (highest dilution) that caused a complete inhibition of bacterial growth after an incubation of 18 h. Effect of LF or LFC combination with antibiotic on MIC was also determined by checkerboard method using 96 well microtiter plates. Each antibiotic dilution (50 μl) was serially added to the wells in vertical rows starting from the top (lower dilution) to the bottom. Lactoferrin or LFC (50 μl) were added to 50 μl of each antibiotic dilution and serially diluted starting at the left (lower dilution) to the right. After inoculation, the final concentration of antibiotic from top to bottom were 32 to 8, 2 to 0.5, 0.5 to 0.125 μg/ml for penicillin, cefazolin and neomycin, respectively. From left to right, the concentration of LF or LFC were 25 to 0.0244 mg/ml or 256 to 0.5 μg/ml respectively in a final volume of 100 μl/well. The microplate's were incubated at 37° C. for 24 h. Bacterial growth was measured optically at 540 nm using Spectra Max 250 Microplate Spectrophotometer System of Molecular Device (Fisher Scientific, Ottawa, Canada). Tubes were incubated at 37° C. for 18 h and bacterial growth was measured by visual examination and optically at 540 nm using a spectrophotometer (Philips PU 8800; Pye Unican Ltd, Cambridge, UK). The fractional inhibitory concentration (FIC) was calculated as described by Eliopoulos and Moellering (1991).

S. aureus PC-1 = assay type: cell-based; conditions: Staphylococcus aureus, strain β-lactamase +A constitutive
Text: as §1, §2

S. aureus FAR 10 = assay type: cell-based; conditions: Staphylococcus aureus, strain β-lactamase +D, read-out: MICs of penicillin G
Text: as §1, §2

S. aureus NCTC = assay type: cell-based; conditions: Staphylococcus aureus, strain β-lactamase +A
Text: as §1, §2

S. aureus SHY97-3906 = assay type: cell-based; conditions: Staphylococcus aureus, strain β-lactamase + uncharacterised, read-out: MICs of penicillin G
Text: as §1, §2

S. aureus SHY97-4320 = assay type: cell-based; conditions: Staphylococcus aureus, strain β-lactamase + uncharacterised, read-out: MICs of penicillin G
Text: as §1, §2

S. aureus ATCC 25923 = assay type: cell-based; conditions: Staphylococcus aureus, strain β-lactamase type −, read-out: MICs of penicillin G
Text: as §1, §2

S. aureus FAR 8 = assay type: cell-based; conditions: Staphylococcus aureus, strain β-lactamase +D, read-out: MICs of penicillin G
Text: as §1, §2

S. aureus SHY97-3923 = assay type: cell-based; conditions: Staphylococcus aureus, strain β-lactamase type −, read-out: MICs of penicillin G
Text: as §1, §2

S. aureus RN 9 = assay type: cell-based, Staphylococcus aureus; conditions: strain β-lactamase +C; for MIC: Staphylococcus aureus
Text: as §1, §2

## CC1(C)S[C@@H]2[C@H](NC(=O)Cc3ccccc3)C(=O)N2[C@H]1C(=O)O [penicillin G, Penicillin G]
S. aureus ST79/41; ST79/41, +0.5 mg/ml LF
  MIC: 16 µg/mL
S. aureus ST79/41; ST79/41, +1 mg/ml LF
  MIC: 16 µg/mL
S. aureus ST79/41; ST79/41, Alone
  MIC: 32 µg/mL
S. aureus PC-1; PC1, read-out: MICs of penicillin G, +0.5 mg/ml LF
  MIC: 128 µg/mL
S. aureus PC-1; PC1, read-out: MICs of penicillin G, +1 mg/ml LF
  MIC: 128 µg/mL
S. aureus PC-1; PC1, read-out: MICs of penicillin G, Alone
  MIC: > 128 µg/mL
S. aureus FAR 10; FAR10, +0.5 mg/ml LF
  MIC: 1 µg/mL
S. aureus FAR 10; FAR10, +1 mg/ml LF
  MIC: 1 µg/mL
S. aureus FAR 10; FAR10, Alone
  MIC: 2 µg/mL
S. aureus NCTC; read-out: MICs of penicillin G, +0.5 mg/ml LF
  MIC: 128 µg/mL
S. aureus NCTC; read-out: MICs of penicillin G, +1 mg/ml LF
  MIC: 128 µg/mL
S. aureus NCTC; read-out: MICs of penicillin G, Alone
  MIC: > 128 µg/mL
S. aureus SHY97-3906; SHY973906, +0.5 mg/ml LF
  MIC: 0.5 µg/mL
S. aureus SHY97-3906; SHY973906, +1 mg/ml LF
  MIC: 0.25 µg/mL
S. aureus SHY97-3906; SHY973906, Alone
  MIC: 0.5 µg/mL
S. aureus SHY97-4320; SHY974320, +0.5 mg/ml LF
  MIC: 32 µg/mL
S. aureus SHY97-4320; SHY974320, +1 mg/ml LF
  MIC: 32 µg/mL
S. aureus SHY97-4320; SHY974320, Alone
  MIC: 64 µg/mL
S. aureus ATCC 25923; ATCC25923, +0.5 mg/ml LF
  MIC: 0.031 µg/mL
S. aureus ATCC 25923; ATCC25923, +1 mg/ml LF
  MIC: 0.015 µg/mL
S. aureus ATCC 25923; ATCC25923, Alone
  MIC: 0.031 µg/mL
S. aureus FAR 8; FAR8, +0.5 mg/ml LF
  MIC: 8 µg/mL
S. aureus FAR 8; FAR8, +1 mg/ml LF
  MIC: 8 µg/mL
S. aureus FAR 8; FAR8, Alone
  MIC: 16 µg/mL
S. aureus SHY97-3923; SHY973923, +0.5 mg/ml LF
  MIC: 7 ng/mL
S. aureus SHY97-3923; SHY973923, +1 mg/ml LF
  MIC: 7 ng/mL
S. aureus SHY97-3923; SHY973923, Alone
  MIC: 15 ng/mL
S. aureus RN 9; +1 mg/ml LF
  MICs of penicillin G: 64 µg/mL
S. aureus RN 9; RN9, read-out: MICs of penicillin G, Alone
  MIC: 128 µg/mL
S. aureus RN 9; RN9, +0.5 mg/ml LF, read-out: MICs of penicillin G
  MIC: 64 µg/mL
